Results published in patent US20230049917A1, “Pharmaceutical Composition of CASR Modulators and Methods and Uses Thereof” (Lupin Limited, priority 2019, published 2023).

What was measured:
[1] = Pharmacokinetic analysis after oral administration of the formulation to rats; type: in vivo; conditions: male, Sprague Dawley, rat, in vivo, po, 5 mg/kg
Protocol: Male Sprague Dawley Rats (weight 225±25 gm; aged 8 to 10 weeks) were administered orally with the formulation. Each of the tested compounds was dosed at 5 mg/kg at a dose volume of 1 mL/kg. Blood samples were collected at time points 0.25, 0.5, 1, 2, 4, 6, 8 and 24 hours and analyzed the plasma concentrations of administered compound and calculated PK parameters. The plasma concentrations of the tested compounds were measured by liquid chromatography with tandem mass spectrometry (LCMS-MS) using […] extraction method. The plasma concentration-time data was subjected to Non-Compartmental Analysis using Phoenix WinNonlin® (Version 5.3) software to assess the pharmacokinetic parameters. Peak plasma concentrations (Cmax) and time for the peak plasma concentrations (Tmax) were the observed values. The area under the concentration time curve (AUC) was calculated by linear trapezoidal rule.

[2] = Phase 2 Main Study: phosphate change from baseline; type: in vivo, human
Protocol: For PK-PD assessments, blood samples for PK assessments were collected at scheduled time points (Screening Period; Day 1 (Pre-dose and post-dose); Day 2; Day 8 EOT (Pre-dose and post-dose); Day 9; Day 10; and Day 15+/−3 days (Follow-up visit)) in the PK-PD study. The PD profiling was done in parallel to the PK profiling in the PK-PD study. Blood samples (approximately 1×4 mL) for PK assessments were collected by venipuncture or cannulation at the selected time points into tubes containing dipotassium ethylenediaminetetraacetic acid (K2EDTA) anti-coagulant. The collected blood sample were kept on ice until centrifugation and later centrifuged at 4 °C at 5000 rpm for 10 minutes and the separated plasma collected in 2 tubes/aliquots. The plasma samples were stored at −20 °C or lower at the clinical centre until they were shipped for analysis. Blood samples (approximately 1×8 mL) for PD assessments were collected in PK-PD study and Main Study at selected time points The Main Study's selected time points were Screening Period; Day 1; Day 8+/−3 days; Day 15+/−3 days; Day 30+/−3 days; Day 60+/−3 days; and Day 90+/−3 days (EOT/Early Discontinuations). Blood samples (approximately 1×5 mL) for exploratory PD assessments for PK-PD study and Main Study were collected at selected time points.
Change from baseline to all measured and relevant time points was calculated. The baseline value for this study was the higher of the 2 values obtained during screening period for serum iPTH concentration, corrected total serum calcium and phosphorous. The baseline value for all other parameters was the last valid and planned visit value prior to first dose of IP in the study. For continuous data, summary statistics included the number, arithmetic mean, standard deviation (SD), median, minimum and maximum. For categorical data, frequency and percentage were presented.

[3] = First-in-human Phase 1 single- and multiple-dose study; type: in vivo; conditions: healthy subjects
cytochrome P450 2D6 = cytochrome P450 2D6 (Homo sapiens, UniProt P10635); assay: Cytochrome P450 2D6 liability; type: in vitro ADME
[4] = Non-clinical studies: hypocalcaemia at efficacious doses; type: in vivo
iPTH = assay: Phase 2 PK-PD Study: iPTH suppression in CKD patients with SHPT; type: in vivo, human; conditions: 25 mg once daily
Protocol: A randomized, double-blind, placebo-controlled phase 2 clinical study was conducted to assess the efficacy, pharmacokinetics (PK), pharmacodynamics (PD) and safety of 2-methyl-5-((2R,4S)-2-((((R)-1-(naphthalen-1-yl)ethyl)amino)methyl) chroman yl)benzoic acid, hydrochloride (Compound 3), as a monotherapy in patients with CKD with secondary hyperparathyroidism (SHPT). The patients enrolled in the study were either on dialysis or not on dialysis. Patients could continue taking doses (whether stable dosing or otherwise) of calcium supplements, phosphate binders, vitamin D, vitamin D analogues or a combination thereof for the treatment of SHPT in combination with Compound 3. Patients can take at least one calcium supplement, phosphate binder, vitamin D, vitamin D analogue or a combination thereof concurrently or concomitantly with Compound 3. Dosing for such calcium supplements, phosphate binders, vitamin D, vitamin D analogues or a combination thereof for the treatment of SHPT can be individualized based on patient's iPTH levels, and/or can correlate with doses presently used for the treatment of SHPT.
This was an open-label, non-randomized, single arm study enrolling 10 patients of which 6 patients were on dialysis and 4 were not on dialysis. All patients received 25 mg Compound 3, once daily for […], and thereafter underwent PK-PD assessments. All 6 patients (100%) on dialysis group completed the study while 2 patients out of 4 (50%) on not on dialysis group completed the study. One objective of this study were to determine PK parameters maximum concentration, time to maximum concentration, area under the curve (AUC) (AUC from time 0 up to the last quantifiable concentration; AUC from time 0 to infinity; AUC from time 0 to 24 hours), half-life, apparent clearance, and apparent volume of distribution from blood samples collected at scheduled time-points. Yet another objective of this study was to determine PD parameters mean absolute change and mean percentage change from baseline in corrected total serum calcium and phosphorus.
For efficacy assessments, the primary efficacy assessment included measurement of iPTH and the exploratory efficacy assessment included measurement of parathyroid gland size at scheduled time points. Blood samples for measurement of iPTH were collected during Day −30 to Day −1 (Screening Period); Day 1; Day 8+/−3 days; Day 15+/−3 days; Day 30+/−3 days; Day 60+/−3 days; and Day 90+/−3 days (EOT/Early Discontinuations). […] If the blood sample collected on Day 90 could not be analysed for any reason, the second blood sample had to be collected within 3 days of end of treatment (EOT). Chemiluminescence microparticles immunoassay (CMIA) (such as Abbott's ARCHITECT® Intact PTH assay) was used to quantify iPTH in serum and plasma. […]

Chain of cytochrome P450 2D6 (P10635 whole entry, species assumed): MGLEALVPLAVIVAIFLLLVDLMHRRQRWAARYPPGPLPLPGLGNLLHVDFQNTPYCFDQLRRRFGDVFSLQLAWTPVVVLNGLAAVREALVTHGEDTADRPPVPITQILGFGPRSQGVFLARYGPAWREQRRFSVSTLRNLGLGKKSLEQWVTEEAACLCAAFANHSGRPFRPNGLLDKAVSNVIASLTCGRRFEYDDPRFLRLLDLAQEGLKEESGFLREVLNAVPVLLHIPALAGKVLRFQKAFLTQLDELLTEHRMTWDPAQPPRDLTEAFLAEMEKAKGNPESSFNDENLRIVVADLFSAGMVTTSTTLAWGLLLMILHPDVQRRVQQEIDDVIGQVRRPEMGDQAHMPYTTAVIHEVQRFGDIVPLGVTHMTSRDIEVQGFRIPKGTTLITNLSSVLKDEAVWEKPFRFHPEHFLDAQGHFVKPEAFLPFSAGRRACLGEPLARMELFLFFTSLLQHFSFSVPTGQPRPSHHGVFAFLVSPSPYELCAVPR

Which AUC(0-t) [1] does the source give for Cc1ccc([C@@H]2C[C@H](CN[C@H](C)c3cccc4ccccc34)Oc3ccccc32)cc1C(=O)O.Cl [Compound 3, 2-methyl-5-((2R,4S)-2-((((R)-1-(naphthalen-1-yl)ethyl)amino)methyl)chroman-4-yl)benzoic acid hydrochloride] here?
Its AUC(0-t) is 15 ± 4 µM·h.

What about the Cmax [1] of the same molecule?
Its Cmax is 3.4 ± 1 µM.

What about the Tmax [1] of the same molecule?
Its Tmax is 0.5 to 2 h.

What about the “phosphorous levels due to administration over a period of 90 days” value ([2]; CKD patients not on dialysis) of the same molecule?
The value was “no increase”.

What about the “phosphorous levels due to administration over a period of 90 days” value ([2]; CKD patients on dialysis) of the same molecule?
The value was “no increase”.

What about the “difference in mean percentage change in phosphate from baseline at the end of 90 days versus Placebo” value ([2]; patients not on dialysis, 10 mg and 5 mg arms) of the same molecule?
The value was “not significant”.

What about the “difference in mean percentage change in phosphate from baseline at the end of 90 days versus Placebo” value ([2]; patients on dialysis, 10 mg, 20 mg and 25 mg arms) of the same molecule?
Its value is “not significant”.

And the safety and tolerability [3]?
The safety and tolerability was “safe and well tolerated”.

What about the “cytochrome P450 2D6 liabilities” value (cytochrome P450 2D6) of the same molecule?
Its value is “devoid”.

And the hypocalcaemia [4]?
Its hypocalcaemia is “No hypocalcaemia”.

What about the “peak effect on iPTH suppression from baseline” value (“peak effect … from baseline” below) (iPTH; Day 1, within 4 hours of dosing, patients on dialysis and not on dialysis) of the same molecule?
Its value is greater than 80.0%.

And the “time of peak effect on iPTH suppression after dosing” value (iPTH; Day 1 and Day 8)?
The value was no more than 4 h.

And the “peak effect … from baseline” value (iPTH; Day 8, within 4 hours of dosing, patients not on dialysis)?
Its value is greater than 85.0%.

What about the “peak effect … from baseline” value (iPTH; Day 8, within 4 hours of dosing, patients on dialysis) of the same molecule?
Its value is greater than 70.0%.
